Results published in patent publication US5208243A, “5-isoquinolinesulfonamides” (Adir et Compagnie, priority 1991, dated 1993).
pIC50: −log10 of the molar value. Where a name gives a salt, the structure may show the parent alone.

Legend:
[1] = test system: rabbit aorta; test: Contraction of rabbit aorta induced by endothelin in a medium without calcium; parameters: species or system New Zealand rabbit; conditions: Oryctolagus cuniculus, 10^-5 M, medium lacking calcium
Description: (§1) Studies are carried out on rings, 3 mm in length, […] The vascular rings are immersed in a normal physiological solution or in a physiological solution lacking calcium (+0.2 mM of the chelating agent EGTA), which is thermostatically regulated at 37° C. and aerated with a 95% O2 +5% CO2 mixture. The rings are linked to a STATHAM tension sensor (UC2-GOULD). The optimal tension for each vessel is applied and a stabilization period of 90 min is observed for the preparations. b) Antivasoconstrictive activity of the compounds of the invention in a medium without calcium.

[2] = test system: Rabbit iliac artery; test: Contraction of rabbit iliac artery induced by caffeine in a medium without calcium; parameters: species or system New Zealand rabbit; conditions: Oryctolagus cuniculus, 10^-5 M, medium lacking calcium
Description: as §1

[3] = test system: rabbit aortas; test: Contraction of rabbit aortas induced by noradrenaline in a medium without calcium; parameters: species or system New Zealand rabbit; conditions: Oryctolagus cuniculus, 0.5 h; compound 10^-6 M, rabbit aorta, incubated 30 minutes
Description: as §1

[4] = test system: smooth muscle cells of the aorta; test: Proliferation rate after endothelial denudation of the aorta (3H-thymidine incorporation); type: in vivo, WISTAR rat; conditions: 10 mg/kg orally, daily
Description: D/ Effect of the compounds of the invention on the proliferation rate after endothelial denudation. […] After pretreatment for 6 days (J6), denudation of the aortic endothelium of the animals is performed according to the following method: After anesthetizing the animal with methohexital (Brietal, 60 mg/kg intraperitoneally), an embolectomy probe (Fogarty 2F) is introduced into the aorta through the left carotid. Aortic deendothelialization is achieved by three successive passages of the probe. Three days after the endothelial denudation (J9), the rats are sacrificed and the aorta is removed, incubated in a physiological solution for 1 hour at 37° C., and then transferred into a ^3 H-thymidine-enriched Krebs- Henseleit solution (specific activity: […]) for 1 hour at 37° C. This is followed by a one-hour post-incubation in a Krebs-Henseleit solution lacking ^3 H-thymidine. After washing in a Tris-EDTA buffer, the proliferation rate is calculated from the incorporation of 3H-thymidine. [drawing 17]

[5] = test system: rabbit aorta; test: Vascular contraction of rabbit aorta induced by PDGF; parameters: species or system New Zealand rabbit; conditions: Oryctolagus cuniculus, 10^-5 M, preincubated 15 minutes
Description: (§2) Studies are carried out on rings, 3 mm in length, […] The vascular rings are immersed in a normal physiological solution or in a physiological solution lacking calcium (+0.2 mM of the chelating agent EGTA), which is thermostatically regulated at 37° C. and aerated with a 95% O2 +5% CO2 mixture. The rings are linked to a STATHAM tension sensor (UC2-GOULD). The optimal tension for each vessel is applied and a stabilization period of 90 min is observed for the preparations. a) Antivasoconstrictive activity of the compounds of the invention in a physiological medium.

[6] = test system: rabbit aorta; test: Contraction of rabbit aorta induced by phorbol ester in a medium without calcium; parameters: species or system New Zealand rabbit; conditions: Oryctolagus cuniculus, 10^-5 M, medium lacking calcium
Description: as §1

[7] = test system: rabbit mesenteric artery; test: Contraction of rabbit mesenteric artery induced by electrical stimulation; parameters: species or system New Zealand rabbit; conditions: Oryctolagus cuniculus, normal physiological medium
Description: as §2

[8] = test system: rat aortas; test: Contraction of rat aortas induced by potassium depolarization (hyperpotassium medium); parameters: species or system WISTAR rat; conditions: read-out: IC50 (concentration inhibiting by 50% the contraction of rat aortas induced by potassium depolarization)
From the text: The rings are linked to a STATHAM tension sensor (UC2-GOULD).

[9] = test system: isolated heart; test: Isolated heart subjected to an ischemia-reperfusion sequence; parameters: species or system WISTAR rat; conditions: Rattus norvegicus, concentration of 810^-7 M (so in the source)
Description: b) Protective effect of the compounds of the invention on an isolated heart subjected to an ischemia-reperfusion sequence.
The heart is removed from WISTAR rats (325-375 g). The heart is rapidly perfused according to the technique of LANGENDORFF at a constant pressure of 101.310^2 Pa and electrically stimulated at 5 Hz.
The heart is subjected to a 30 min ischemia (produced by complete stoppage of the perfusion) followed by a 60 min reperfusion. The test compounds are incubated for 15 min before the ischemia.
Isovolumetric contractions are recorded by means of a polyethylene ballonet linked to a pressure sensor (P23-GOULD) introduced into the left ventricle and inflated so as to obtain a diastolic pressure of between 6.710^2 and 13.310^2 Pa.

[10] = test system: guinea pig left auricle; test: Veratridine intoxication of guinea pig left auricle; conditions: compound 10^-5 M
Description: a) Effect of the compounds of the invention on the intoxication of guinea pig left auricle.
The left auricles are removed from guinea pigs (350-450 g) anesthetized with sodium pentobarbital (30 mg/kg). The auricles are attached to a STATHAM tension sensor (UC2-GOULD) and the initial tension applied is 0.5 grams.
The auricles are electrically stimulated at 1 Hz by means of platinum electrodes. The intoxications are produced either by the addition of ouabain (10^-6 M) or by the addition of veratridine (10^-5 M). The test compounds are added 15 minutes before adding the toxic agent.

[11] = test system: rabbit aorta; test: Contraction of rabbit aorta induced by phorbol ester in a normal physiological medium; parameters: species or system New Zealand rabbit; conditions: Oryctolagus cuniculus, TPA 10^-5 M, read-out: IC50, phorbol ester stimulus
Description: as §2

[12] = test system: rabbit aorta; test: Contraction of rabbit aorta induced by endothelin in a normal physiological medium; parameters: species or system New Zealand rabbit; conditions: Oryctolagus cuniculus, read-out: IC50, endothelin stimulus
Description: as §2

[13] = test system: rabbit aorta; test: Contraction of rabbit aorta induced by noradrenaline in a normal physiological medium; parameters: species or system New Zealand rabbit; conditions: Oryctolagus cuniculus, noradrenaline 10^-6 M, read-out: IC50, noradrenaline stimulus
Description: as §2

[14] = test system: guinea pig left auricle; test: Ouabain intoxication of guinea pig left auricle; conditions: compound 10^-6 M
[15] = test system: pig coronary artery; test: Vascular contraction of pig coronary artery induced by acetylcholine; conditions: Sus scrofa, 10^-5 M, preincubated 15 minutes
Description: Studies are carried out on rings, 3 mm in length, - or of coronary arteries from pigs anesthetized with nesdonal (8 mg/kg intravenously). The vascular rings are immersed in a normal physiological solution or in a physiological solution lacking calcium (+0.2 mM of the chelating agent EGTA), which is thermostatically regulated at 37° C. and aerated with a 95% O2 +5% CO2 mixture. The rings are linked to a STATHAM tension sensor (UC2-GOULD). The optimal tension for each vessel is applied and a stabilization period of 90 min is observed for the preparations. a) Antivasoconstrictive activity of the compounds of the invention in a physiological medium.

[16] = test system: rabbit aorta; test: Contraction of rabbit aorta induced by angiotensin II in a medium without calcium; parameters: species or system New Zealand rabbit; conditions: Oryctolagus cuniculus, 10^-5 M, medium lacking calcium
Description: as §1

CN(C1CCN(CCCCOc2ccc(F)cc2)CC1)S(=O)(=O)c1cccc2cnccc12 [Example 1, N-Methyl-N-{1-[4-(pfluorophenoxy)butyl]-4-piperidyl}-5-isoquinolinesulfonamide fumarate]
inhibition at 10 µM [1]: 42% | inhibition at 10 µM [2]: 30% | inhibition at 1 µM [3]: 61% | reduction of the proliferation of smooth muscle cells [4]: 40% | inhibition at 10 µM [5]: 20% | inhibition at 10 µM [6]: 66% | pIC50 [7]: 6.40 | pIC50 [8]: 6.07 | inhibition at 0.8 µM ([9]; 0.5 h, read-out: reduction of the contracture developed after 30 minutes of ischemia, relative to control): 47% | activation at 0.8 µM ([9]; 1 h, end of 60 minutes of reperfusion, read-out: improvement of the functional recuperation of the hearts relative to control): 55% | % contraction ([10]; 5 min): 158 ± 11% | % contraction ([10]; 15 min): 60.5 ± 13% | Contracture (%) ([10]; 15 min): 23.5 ± 6.2% | Contracture (%) ([10]; 30 min): 52.2 ± 4.7% | % contraction ([10]; 60 min): 20.5 ± 4.6% | Contracture (%) ([10]; 60 min): 60.7 ± 4.4% | pIC50 [11]: 3.52 | pIC50 [12]: 5.09 | pIC50 [13]: 5.85 | % contraction ([14]; 10 min): 192 ± 29% | Contracture (%) ([14]; 15 min): 0% | % contraction ([14]; 30 min): 187.5 ± 30% | Contracture (%) ([14]; 30 min): 1.9 ± 1.9% | % contraction ([14]; 60 min): 148.3 ± 33% | Contracture (%) ([14]; 60 min): 18 ± 7% | inhibition at 10 µM [15]: 61% | inhibition at 10 µM [16]: 40%
